Data set [1] can be described thus: Solubility under simulated conditions in the human stomach. It is filed as physicochemical. The settings on record: aqueous sodium chloride solution (0.2% by weight), pH 1.2 with hydrochloric acid, stirred for 5 hours. The method, then:
The samples were then treated as described above, and the amount of free base in solution is determined by means of HPLC.

Data set [2] in a line: Solubility studies in H2O. It is filed as physicochemical. As to conditions: water, thermodynamic from solid, 20 mg in 1 ml of H2O, stirred overnight at 25° C., filtrate analyzed by HPLC. The procedure: 1 ml of H2O each is added, and the HPLC glasses are sealed. The suspensions that are produced are stirred overnight at 25° C. To estimate the amount of dissolved substance, the suspensions are filtered via pipette microfilters, and the filtrates that are obtained are diluted 1:4 and analyzed by means of HPLC. The HPLC analysis was carried out on a […] Luna RP18 (100A)-column with the following dimensions: 5 μm 50×4.6 mm with use of an isocratic mixture of acetonitrile and H2O+0.1% TFA in the ratio 3:7.

Another data set relates to HCMV AD 169 RV-HG. As to the kind of experiment: HCMV fluorescence reduction test. The format is cell-based, human cytomegalovirus. The method, then:
The test compounds are used as 50 millimolar (mM) solutions in dimethyl sulfoxide (DMSO). As reference compounds, e.g., Ganciclovir®, Foscarnet®, Cidofovir® or else the compound of Example 9A can be used. One day before the start of the test, 1.5×10^4 human foreskin fibroblasts (NHDF cells)/well are sowed in 200 μl of cell culture medium in the wells B2-G11 of 96-well plates (black with a translucent bottom). The wells at the edge position of each 96-well plate are filled only with 200 μl of medium to avoid edge effects. On the day of the test, the cell culture medium is suctioned off from the wells B2-G11 of each 96-well plate and replaced by 100 μl of virus suspension (multiplicity of infection (MOI): 0.1-0.2). The virus that is used is a recombinant HCMV, which has integrated an expression cassette for the green fluorescence protein (GFP) in the virus genome (HCMV AD 169 RV-HG, E. M. Borst, K. Wagner, A. Binz, B. Sodeik, and M. Messerle, 2008, J. Virol. 82: 2065-2078). After an incubation time of 2 hours at 37° C. and 5% CO2, the virus inoculate is suctioned off, and all wells except for the wells in Column 3 are filled with 200 μl of cell culture medium. Column 2 is not further treated and serves as a virus control. The wells in Column 3 are filled in each case in double determination with 300 μl of test substance (diluted in cell culture medium). The concentration of the respective antiviral substance in Column 3 is ˜ the 27× concentration of the EC50 value that is expected in each case. The test substance in Column 3 is diluted in 8 steps 1:3 over the 96-well plate by in each case 100 μl of a column being transferred into the right column in each case—and being mixed there with the existing 200 μl of cell culture medium. […] Then, the GFP intensity of each well of a 96-well plate is determined by means of a fluorescence reading device (FluoBox; Bayer Technology Services GmbH; Filter settings: GFP, Ex 480 nm, Em 520 nm). The EC50 of an anti-HCMV substance can be determined from the thus obtained measurement values: […]

Another data set in a line: Hygroscopy. The settings on record: approximately 46% relative atmospheric humidity and 24° C., storage time approximately 2 days. It is filed as physicochemical. The method, then: By storing the salt of Example 1 in pure form at approximately 46% relative atmospheric humidity and 24° C., the hygroscopy of the salts according to the invention was measured.
Setting [3] is: Human betaherpesvirus 5, AD169, NHDF, 168 h, read-out: EC50 (GFP-RA), virus strain AD169 RV-HG in NHDF cells, 7 days, GFP fluorescence.

The structures appear in SMILES notation. pEC50: −log10 of the molar value. ≈ marks a conversion by molar mass, not a printed value. Where two headings read alike, the source gives them in different places. Some results are limits rather than exact numbers.

Data on three compounds can be found in US9133165B2, “Sulfonic acid salts of heterocyclylamide-substituted imidazoles” (AICURIS GMBH & CO. KG, priority 2011, dated 2015).

For orientation: solubility means the dissolved amount per volume that the medium holds. By pEC50 is commonly meant the EC50 on a negative log10 scale, so that one unit is a factor of ten.

Consider `Cc1ccc(N2CCN(C(=O)c3nc(NC(=O)Nc4ccc(OC(F)(F)F)cc4)cn3C)CC2)nc1` [Example 9A, N-(1-Methyl-2-{[4-(5-methylpyridin-2-yl)piperazin-1-yl]carbonyl}-1H-imidazol-4-yl)-N′-[4-(trifluoromethoxy)phenyl]urea], for which the “Amount of Dissolved Free Base” value in data set [1] is 0.065 mg/mL. The compound also came in with a solubility in data set [2] of 4 µg/mL (≈ 7.94 µM). The pEC50 in the data set with HCMV AD 169 RV-HG (setting [3]) was 8.82.
Take `Nc1nc(O)c2ncn(COC(CO)CO)c2n1` [Ganciclovir, reference compound]: the negative logarithm of the EC50 (pEC50) in the data set on HCMV AD 169 RV-HG (setting [3]) is 5.49.
As to `CS(=O)(=O)O.CS(=O)(=O)O.Cc1ccc(N2CCN(C(=O)c3nc(NC(=O)Nc4ccc(OC(F)(F)F)cc4)cn3C)CC2)nc1` [Example 1, N-(1-Methyl-2-{[4-(5-methylpyridin-2-yl)piperazin-1-yl]-carbonyl}-1H-imidazol-4-yl)-N′-[4-trifluoromethoxyphenyl]urea dimesylate], the “Amount of Dissolved Free Base” value in data set [1] is 0.103 mg/mL. Moreover, in data set [2], the solubility was > 9700 µg/mL. Also, the “weight increase (hygroscopy)” value in “Hygroscopy” is “less than 0.11%”. For the same compound, the negative logarithm of the EC50 (pEC50) in the data set on HCMV AD 169 RV-HG (read-out: EC50 (GFP-RA), virus strain AD169 RV-HG in NHDF cells, 7 days, GFP fluorescence, dimesylate) was 8.74.
